Experimental data reported in ChEMBL document CHEMBL1134189, “Synthesis and monoamine transporter affinity of 3beta-(4-(2-pyrrolyl)phenyl)-8-azabicycl” (Bioorg Med Chem Lett, 2001).

Tests used:
[1] = biological target: Sodium-dependent serotonin transporter (Rattus norvegicus, UniProt P31652); experiment: Displacement of [3H]paroxetine from Serotonin transporter of rat frontal cortex membrane; format: tissue-based
[2] = biological target: Sodium-dependent dopamine transporter (Rattus norvegicus, UniProt P23977); experiment: Displacement of [125I]RTI-55 from Dopamine transporter of rat striatal membrane
[3] = biological target: Monoamine transporters; serotonin & dopamine (Rattus norvegicus) (UniProt P31652+P23977); experiment: Relative affinity for serotonin and Dopamine transporters; format: protein assay
Monoamine transporters; serotonin & dopamine (Rattus norvegicus), sequence (P23977 whole entry, looked up): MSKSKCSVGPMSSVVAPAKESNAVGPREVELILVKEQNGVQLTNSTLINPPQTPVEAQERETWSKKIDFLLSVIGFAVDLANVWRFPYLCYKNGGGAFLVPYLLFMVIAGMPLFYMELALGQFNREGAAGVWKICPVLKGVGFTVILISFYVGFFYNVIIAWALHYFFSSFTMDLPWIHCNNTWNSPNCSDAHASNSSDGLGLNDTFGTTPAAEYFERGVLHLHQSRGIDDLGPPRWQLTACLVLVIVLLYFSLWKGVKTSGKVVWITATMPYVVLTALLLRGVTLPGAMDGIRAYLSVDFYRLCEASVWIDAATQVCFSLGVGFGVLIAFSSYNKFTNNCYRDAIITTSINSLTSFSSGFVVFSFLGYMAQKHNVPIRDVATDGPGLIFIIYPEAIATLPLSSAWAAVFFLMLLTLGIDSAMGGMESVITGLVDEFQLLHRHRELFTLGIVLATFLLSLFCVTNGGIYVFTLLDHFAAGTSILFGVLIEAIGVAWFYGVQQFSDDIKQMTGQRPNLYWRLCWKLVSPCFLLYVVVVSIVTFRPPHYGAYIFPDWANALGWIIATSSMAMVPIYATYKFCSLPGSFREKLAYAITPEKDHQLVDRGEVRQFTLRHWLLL
Monoamine transporters; serotonin & dopamine (Rattus norvegicus), sequence (P31652 whole entry, looked up): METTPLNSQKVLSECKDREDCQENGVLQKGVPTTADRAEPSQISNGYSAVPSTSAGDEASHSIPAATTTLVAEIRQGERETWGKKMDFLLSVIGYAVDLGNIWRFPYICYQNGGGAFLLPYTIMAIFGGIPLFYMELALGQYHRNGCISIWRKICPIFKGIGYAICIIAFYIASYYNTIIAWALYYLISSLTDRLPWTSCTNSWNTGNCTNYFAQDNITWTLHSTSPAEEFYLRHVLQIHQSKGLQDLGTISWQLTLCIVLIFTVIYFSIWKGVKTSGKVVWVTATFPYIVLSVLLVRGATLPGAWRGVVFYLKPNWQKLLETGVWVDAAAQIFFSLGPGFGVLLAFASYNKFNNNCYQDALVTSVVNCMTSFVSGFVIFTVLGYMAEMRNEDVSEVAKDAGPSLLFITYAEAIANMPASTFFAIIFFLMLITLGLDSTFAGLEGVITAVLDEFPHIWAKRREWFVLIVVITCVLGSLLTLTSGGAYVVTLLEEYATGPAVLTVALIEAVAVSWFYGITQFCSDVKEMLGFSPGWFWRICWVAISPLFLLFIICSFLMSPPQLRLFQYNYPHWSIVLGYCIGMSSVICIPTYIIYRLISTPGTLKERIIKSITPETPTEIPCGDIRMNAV

Sodium-dependent dopamine transporter, sequence (P23977 whole entry): as the sequence (P23977 whole entry, looked up) above
Sodium-dependent serotonin transporter, sequence (P31652 whole entry): as the sequence (P31652 whole entry, looked up) above

SMILES | Ki [1] [nM] | IC50 [2] [nM] | Ratio [3]
CCOC(=O)C1C2CCC(CC1c1ccc(-c3ccc(C)n3C)cc1)N2 (centres undefined) | 49.1 | 825 | 16.8
CCOC(=O)C1C2CCC(CC1c1ccc3c(ccn3C)c1)N2 (centres undefined) | 1.74 | 2.73 | 1.57
CCOC(=O)C1C(c2ccc(-c3cccn3Cc3ccccc3)cc2)CC2CCC1N2C (centres undefined) | 59.2 | 58 | 0.98
CCOC(=O)C1C2CCC(CC1c1ccc(-c3c(C)ccn3C)cc1)N2 (centres undefined) | 48.8 |  | 
CCOC(=O)C1C(c2ccc(-c3cccn3CC)cc2)CC2CCC1N2C (centres undefined) | 337 | > 1000 | > 2.97
CCOC(=O)C1C2CCC(CC1c1ccc3c(ccn3CC)c1)N2 (centres undefined) | 3.04 | 2.37 | 0.78
CCOC(=O)C1C(c2ccc3c(ccn3CC)c2)CC2CCC1N2C (centres undefined) | 5.54 | 1.2 | 0.22
CCOC(=O)C1C(c2ccc3c(ccn3C)c2)CC2CCC1N2C (centres undefined) | 2.84 | 0.75 | 0.26
CCOC(=O)C1C(c2ccc(-c3cccn3C)cc2)CC2CCC1N2C (centres undefined) | 25.6 | 703 | 27.4
CCOC(=O)C1C2CCC(CC1c1ccc(-c3cccn3C)cc1)N2 (centres undefined) | 1.05 | 614 | 585
CCOC(=O)C1C(c2ccc(-c3c(C)ccn3C)cc2)CC2CCC1N2C (centres undefined) | > 1000 | > 1000 | 
CCOC(=O)C1C2CCC(CC1c1ccc(-c3cccn3CC)cc1)N2 (centres undefined) | 15.7 | > 1000 | > 63.7
CCOC(=O)C1C2CCC(CC1c1ccc(-c3cccn3Cc3ccccc3)cc1)N2 (centres undefined) | 6.36 | 32.2 | 5.06
CCOC(=O)C1C2CCC(CC1c1ccc(-c3ccc(-c4ccccc4)n3C)cc1)N2 (centres undefined) | 112 | > 1000 | > 8.93
